The text below walks through data of patent US12539292B2, “BRM targeting compounds and associated methods of use” (Arvinas Operations, Inc., priority 2018, dated 2026).

The experiment deals with T1, BRM (Homo sapiens, UniProt P51531).
T1 construct: In-Cell Western Screen of BRM Degradation in SW1573 Cells; endogenous in cells; host or cells: SW1573
Description: In-cell Western screen of BRM degradation in SW1573 cells (Dmax and DC50). The class given is cell-based. An outline of the steps:
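After adhering overnight, cells received compound for 18-20 hours. They were then washed in cold DPBS, fixed with 4% PFA for 20 min and permeabilized for 30 min. Blocking and fluorescent secondary staining followed before imaging.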

[1] abbreviates: BRM degradation, SW1573 cells, read-out: DC50.
[2] abbreviates: BRM degradation, SW1573 cells, read-out: Dmax (% degraded).
Where [3] appears, read: BRM degradation, SW1573 cells, tested at the top concentration of between 0.3 and 10 μM, read-out: Dmax (%) (% degraded).
Setting [4] is: SW1573, % degraded, when tested at the top concentration of between 0.3 and 10 μM, read-out: BRM Dmax (%).

Read-outs that look alike come from different tables or passages of the source.

T1 sequence (P51531 whole entry): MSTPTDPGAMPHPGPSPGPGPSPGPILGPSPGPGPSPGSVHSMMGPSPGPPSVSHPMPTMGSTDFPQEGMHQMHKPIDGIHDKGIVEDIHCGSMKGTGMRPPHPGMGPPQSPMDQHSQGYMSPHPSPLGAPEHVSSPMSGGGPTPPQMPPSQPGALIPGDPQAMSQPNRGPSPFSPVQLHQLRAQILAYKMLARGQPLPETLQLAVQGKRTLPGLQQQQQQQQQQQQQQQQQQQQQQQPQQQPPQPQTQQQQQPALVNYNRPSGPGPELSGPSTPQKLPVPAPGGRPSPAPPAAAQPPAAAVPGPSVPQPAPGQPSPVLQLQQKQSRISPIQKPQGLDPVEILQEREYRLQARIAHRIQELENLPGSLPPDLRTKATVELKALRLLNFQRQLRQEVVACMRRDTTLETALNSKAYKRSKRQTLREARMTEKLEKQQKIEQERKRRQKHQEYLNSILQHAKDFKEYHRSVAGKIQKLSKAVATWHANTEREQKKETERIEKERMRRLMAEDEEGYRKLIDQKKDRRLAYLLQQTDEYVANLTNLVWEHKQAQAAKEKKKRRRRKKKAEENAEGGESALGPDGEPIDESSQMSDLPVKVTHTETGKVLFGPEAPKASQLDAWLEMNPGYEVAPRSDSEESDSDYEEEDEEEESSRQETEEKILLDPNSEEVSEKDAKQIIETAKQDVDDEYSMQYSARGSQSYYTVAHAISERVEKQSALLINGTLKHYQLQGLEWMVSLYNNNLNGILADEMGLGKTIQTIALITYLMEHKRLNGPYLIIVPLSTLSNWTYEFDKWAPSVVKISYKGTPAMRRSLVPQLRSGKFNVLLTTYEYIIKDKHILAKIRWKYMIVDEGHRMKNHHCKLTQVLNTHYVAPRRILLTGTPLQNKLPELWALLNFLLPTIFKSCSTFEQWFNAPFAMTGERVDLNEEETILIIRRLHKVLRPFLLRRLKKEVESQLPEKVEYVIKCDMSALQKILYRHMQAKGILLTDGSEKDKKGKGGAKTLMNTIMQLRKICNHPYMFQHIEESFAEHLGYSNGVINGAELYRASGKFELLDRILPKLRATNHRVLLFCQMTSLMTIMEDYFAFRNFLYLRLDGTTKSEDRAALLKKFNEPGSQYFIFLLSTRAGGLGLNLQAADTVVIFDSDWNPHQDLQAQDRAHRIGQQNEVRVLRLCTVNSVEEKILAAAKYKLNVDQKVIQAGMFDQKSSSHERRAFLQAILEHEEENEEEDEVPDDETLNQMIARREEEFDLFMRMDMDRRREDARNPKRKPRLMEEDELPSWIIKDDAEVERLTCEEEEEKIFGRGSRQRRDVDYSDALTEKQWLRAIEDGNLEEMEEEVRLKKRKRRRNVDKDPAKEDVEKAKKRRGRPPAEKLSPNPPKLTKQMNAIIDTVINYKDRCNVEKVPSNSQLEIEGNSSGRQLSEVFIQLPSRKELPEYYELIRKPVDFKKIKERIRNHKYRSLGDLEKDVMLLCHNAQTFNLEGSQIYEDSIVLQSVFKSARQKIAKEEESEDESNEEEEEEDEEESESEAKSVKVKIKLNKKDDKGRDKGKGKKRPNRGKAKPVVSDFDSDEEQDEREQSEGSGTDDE

As for `Cc1ncsc1-c1ccc([C@H](C)NC(=O)[C@@H]2C[C@@H](O)CN2C(=O)[C@@H](c2cc(OCCCc3ccc(C(C)n4cc(-c5cc(-c6ccccc6O)nnc5N)cn4)cc3)no2)C(C)C)cc1` (stereo partly drawn) [compound 60, (2S,4R)-1-((2R)-2-(3-(3-(4-(1-(4-(3-amino-6-(2-hydroxyphenyl)pyridazin-4-yl)-1H-pyrazol-1-yl)ethyl)phenyl)propoxy)isoxazol-5-yl)-3-methylbutanoyl)-4-hydroxy-N-((S)-1-(4-(4-methylthiazol-5-yl)phenyl)ethyl)pyrrolidine-2-carboxamide], under setting [1], the DC50 (in general, the concentration at which degradation of the target reaches its halfway point) is below 2.5 nM. In addition, under “BRM degradation, SW1573 cells, when tested at the top concentration of between 0.3 and 10 μM, read-out: Dmax (%) (% degraded)”, the Dmax – broadly, the greatest extent of degradation seen – is above 75%. Regarding `Cc1ncsc1-c1ccc([C@H](C)NC(=O)[C@@H]2C[C@@H](O)CN2C(=O)[C@@H](c2cc(N3CCC(CN4CCC(O[C@H]5C[C@@H](CN6CCC(C(C)n7cc(-c8cc(-c9ccccc9O)nnc8N)cn7)CC6)C5)CC4)CC3)no2)C(C)C)cc1` (stereo partly drawn) [compound 664, (2S,4R)-1-((2R)-2-(3-(4-((4-((1s,3s)-3-((4-(1-(4-(3-amino-6-(2-hydroxyphenyl)pyridazin-4-yl)-1H-pyrazol-1-yl)ethyl)piperidin-1-yl)methyl)cyclobutoxy)piperidin-1-yl)methyl)piperidin-1-yl)isoxazol-5-yl)-3-methylbutanoyl)-4-hydroxy-N-((S)-1-(4-(4-methylthiazol-5-yl)phenyl)ethyl)pyrrolidine-2-carboxamide], the DC50 under setting [1] was below 2.5 nM. The Dmax under setting [2] was above 75%.

`Cc1ncsc1-c1ccc([C@H](C)NC(=O)[C@@H]2C[C@@H](O)CN2C(=O)[C@H](c2cc(N3CCC(CN4CCC(O[C@H]5C[C@H](Oc6cc(/C=C/c7cc(-c8ccccc8O)nnc7N)ccn6)C5)CC4)CC3)no2)C(C)C)cc1` [compound 625, (2S,4R)-1-((S)-2-(3-(4-((4-((1r,3r)-3-((4-((E)-2-(3-amino-6-(2-hydroxyphenyl)pyridazin-4-yl)vinyl)pyridin-2-yl)oxy)cyclobutoxy)piperidin-1-yl)methyl)piperidin-1-yl)isoxazol-5-yl)-3-methylbutanoyl)-4-hydroxy-N-((S)-1-(4-(4-methylthiazol-5-yl)phenyl)ethyl)pyrrolidine-2-carboxamide]: the DC50 (BRM degradation, SW1573 cells, Table 2D, read-out: *DC50) is above 30 nM. `Cc1ncsc1-c1ccc([C@H](C)NC(=O)[C@@H]2C[C@@H](O)CN2C(=O)[C@H](c2cc(OCCC3CCN(C[C@H]4C[C@H](C#CC(C)n5cc(-c6cc(-c7ccccc7O)nnc6N)cn5)C4)CC3)no2)C(C)C)cc1` (stereo partly drawn) [compound 633, (2S,4R)-1-((2R)-2-(3-(2-(1-(((1r,3R)-3-(3-(4-(3-amino-6-(2-hydroxyphenyl)pyridazin-4-yl)-1H-pyrazol-1-yl)but-1-yn-1-yl)cyclobutyl)methyl)piperidin-4-yl)ethoxy)isoxazol-5-yl)-3-methylbutanoyl)-4-hydroxy-N-((S)-1-(4-(4-methylthiazol-5-yl)phenyl)ethyl)pyrrolidine-2-carboxamide]: the DC50 under setting [1] is below 2.5 nM. Also, the maximal degradation (Dmax) under setting [2] was above 75%. Consider `Cc1ncsc1-c1ccc([C@H](C)NC(=O)[C@@H]2C[C@@H](O)CN2C(=O)[C@@H](c2cc(OCCN3CCC(O[C@H]4C[C@H](Oc5cc(N6C7CCC6CN(c6cc(-c8ccccc8O)nnc6N)C7)ccn5)C4)CC3)no2)C(C)C)c(F)c1` [compound 240, (2S,4R)-1-((2R)-2-(3-(2-(4-((1r,3R)-3-((4-(3-(3-amino-6-(2-hydroxyphenyl)pyridazin-4-yl)-3,8-diazabicyclo[3.2.1]octan-8-yl)pyridin-2-yl)oxy)cyclobutoxy)piperidin-1-yl)ethoxy)isoxazol-5-yl)-3-methylbutanoyl)-N-((S)-1-(2-fluoro-4-(4-methylthiazol-5-yl)phenyl)ethyl)-4-hydroxypyrrolidine-2-carboxamide], for which the DC50 under setting [1] was below 2.5 nM. In addition, the Dmax under setting [3] is above 75%.

As to `COc1nc(-c2scnc2C)ccc1[C@H](C)NC(=O)[C@@H]1C[C@@H](O)CN1C(=O)[C@@H](c1cc(OCCN2CCC(O[C@H]3C[C@H](Oc4cc(N5C6CCC5CN(c5cc(-c7ccccc7O)nnc5N)C6)ccn4)C3)CC2)no1)C(C)C` [compound 279, (2S,4R)-1-((2R)-2-(3-(2-(4-((1r,3R)-3-((4-(3-(3-amino-6-(2-hydroxyphenyl)pyridazin-4-yl)-3,8-diazabicyclo[3.2.1]octan-8-yl)pyridin-2-yl)oxy)cyclobutoxy)piperidin-1-yl)ethoxy)isoxazol-5-yl)-3-methylbutanoyl)-4-hydroxy-N-((S)-1-(2-methoxy-6-(4-methylthiazol-5-yl)pyridin-3-yl)ethyl)pyrrolidine-2-carboxamide], under setting [1], the DC50 is below 2.5 nM. Further, under setting [3], the Dmax is above 75%. As to `Cc1ncsc1-c1ccc([C@H](C)NC(=O)[C@@H]2C[C@@H](O)CN2C(=O)[C@H](c2cc(N3CCC4(CC3)CC(CN3CCC(O[C@H]5C[C@H](Oc6cc(N7C8CCC7CN(c7cc(-c9ccccc9O)nnc7N)C8)ccn6)C5)CC3)C4)no2)C(C)C)cc1` [compound 649, (2S,4R)-1-((2S)-2-(3-(2-((4-((1r,3r)-3-((4-(3-(3-amino-6-(2-hydroxyphenyl)pyridazin-4-yl)-3,8-diazabicyclo[3.2.1]octan-8-yl)pyridin-2-yl)oxy)cyclobutoxy)piperidin-1-yl)methyl)-7-azaspiro[3.5]nonan-7-yl)isoxazol-5-yl)-3-methylbutanoyl)-4-hydroxy-N-((S)-1-(4-(4-methylthiazol-5-yl)phenyl)ethyl)pyrrolidine-2-carboxamide], the DC50 under setting [1] was above 30 nM. In the case of `Cc1ncsc1-c1ccc([C@H](C)NC(=O)[C@@H]2C[C@@H](O)CN2C(=O)[C@H](c2cc(CCCN3CCC(O[C@H]4C[C@H](Oc5cc(N6C7CCC6CN(c6cc(-c8ccccc8O)nnc6N)C7)ccn5)C4)CC3)no2)C(C)C)cc1` [compound 190, (2S,4R)-1-((2S)-2-(3-(3-(4-((1r,3S)-3-((4-(3-(3-amino-6-(2-hydroxyphenyl)pyridazin-4-yl)-3,8-diazabicyclo[3.2.1]octan-8-yl)pyridin-2-yl)oxy)cyclobutoxy)piperidin-1-yl)propyl)isoxazol-5-yl)-3-methylbutanoyl)-4-hydroxy-N-((S)-1-(4-(4-methylthiazol-5-yl)phenyl)ethyl)pyrrolidine-2-carboxamide], the DC50 under setting [1] is above 30 nM. With `COc1cc(-c2scnc2C)ccc1[C@H](C)NC(=O)[C@@H]1C[C@@H](O)CN1C(=O)[C@H](c1cc(OCCN2CCC(O[C@H]3C[C@H](Oc4cc(N5C6CCC5CN(c5cc(-c7ccccc7O)nnc5N)C6)ccn4)C3)CC2)no1)C(C)C` [compound 201, (2S,4R)-1-((2S)-2-(3-(2-(4-((1r,3S)-3-((4-(3-(3-amino-6-(2-hydroxyphenyl)pyridazin-4-yl)-3,8-diazabicyclo[3.2.1]octan-8-yl)pyridin-2-yl)oxy)cyclobutoxy)piperidin-1-yl)ethoxy)isoxazol-5-yl)-3-methylbutanoyl)-4-hydroxy-N-((S)-1-(2-methoxy-4-(4-methylthiazol-5-yl)phenyl)ethyl)pyrrolidine-2-carboxamide], the DC50 under setting [1] lay within 10 to 30 nM. Moreover, the Dmax under setting [3] was above 75%.

As to `Cc1ncsc1-c1ccc(CNC(=O)[C@@H]2C[C@@H](O)CN2C(=O)[C@@H](c2cc(OCCN3CCC(O[C@H]4C[C@H](Oc5cc(N6C7CCC6CN(c6cc(-c8ccccc8O)nnc6N)C7)ccn5)C4)CC3)no2)C(C)C)c(C#N)c1` [compound 225, (2S,4R)-1-((2R)-2-(3-(2-(4-((1r,3R)-3-((4-(3-(3-amino-6-(2-hydroxyphenyl)pyridazin-4-yl)-3,8-diazabicyclo[3.2.1]octan-8-yl)pyridin-2-yl)oxy)cyclobutoxy)piperidin-1-yl)ethoxy)isoxazol-5-yl)-3-methylbutanoyl)-N-(2-cyano-4-(4-methylthiazol-5-yl)benzyl)-4-hydroxypyrrolidine-2-carboxamide], the DC50 under setting [1] was below 2.5 nM. Also, the Dmax under setting [3] was above 75%. With `Cc1cc([C@@H](C(=O)N2C[C@H](O)C[C@H]2C(=O)N[C@@H](C)c2ccc(-c3scnc3C)cc2)[C@@H](C)CO[C@H]2C[C@@H](Oc3cc(N4C5CCC4CN(c4cc(-c6ccccc6O)nnc4N)C5)ccn3)C2)on1` [compound 481, (2S,4R)-1-((2S,3R)-4-((1s,3S)-3-((4-(3-(3-amino-6-(2-hydroxyphenyl)pyridazin-4-yl)-3,8-diazabicyclo[3.2.1]octan-8-yl)pyridin-2-yl)oxy)cyclobutoxy)-3-methyl-2-(3-methylisoxazol-5-yl)butanoyl)-4-hydroxy-N-((S)-1-(4-(4-methylthiazol-5-yl)phenyl)ethyl)pyrrolidine-2-carboxamide], the Dmax under setting [4] is above 75%. The DC50 (target protein degradation, read-out: BRM DC50) was below 2.5 nM. For the compound `Cc1ncsc1-c1ncc([C@@H](C)NC(=O)[C@@H]2C[C@@H](O)CN2C(=O)C(c2cc(OCCN3CCC(O[C@H]4C[C@H](Oc5cc(N6C7CCC6CN(c6cc(-c8ccccc8O)nnc6N)C7)ccn5)C4)CC3)no2)C(C)C)cc1F` (stereo partly drawn) [compound 501, (2S,4R)-1-(2-(3-(2-(4-((1r,3r)-3-((4-(3-(3-amino-6-(2-hydroxyphenyl)pyridazin-4-yl)-3,8-diazabicyclo[3.2.1]octan-8-yl)pyridin-2-yl)oxy)cyclobutoxy)piperidin-1-yl)ethoxy)isoxazol-5-yl)-3-methylbutanoyl)-N-((R)-1-(5-fluoro-6-(4-methylthiazol-5-yl)pyridin-3-yl)ethyl)-4-hydroxypyrrolidine-2-carboxamide], the half-maximal degradation concentration (DC50) (BRM degradation, read-out: BRM DC50) was below 2.5 nM. Also, the Dmax under setting [4] was above 75%.
